Assay: Antiproliferative activity mediated by sigma 1 receptor in rat C6 glioma cells by MTT assay

In order of rising EC50:
1. CCCN(CCC)CCc1ccc(OC)c(OCCc2ccccc2)c1  10.7 µM
2. COc1ccc2c(CCCCN3CCCC(C)(C)C3)cccc2c1  15 µM
3. COc1ccc2c(CCCCN3CCCCC3)cccc2c1  19.4 µM
4. COc1ccc2c(CCCCN3CCC(C)CC3)cccc2c1  25.5 µM
5. COc1ccc2c(CCCN3CCCC(C)(C)C3)cccc2c1  40.2 µM
